Read-outs that look alike come from different tables or passages of the source.
Key:
[1] = tested on: murine Ehrlich ascites carcinoma; settings: cited from earlier work
[2] = tested on: rat ascitic reticulum cell sarcoma; settings: material contained beta-elemene 65%; cited from earlier work
K562 leukemia cells = settings: cited from earlier work
[3] = Solubility of elemenes in water; type: physicochemical; settings: found by the inventor
cerebral carcinoma = settings: combination of the elemene and local chemotherapy; cited from earlier work
[4] = tested on: promyelocytic leukemia HL 60 cells; settings: cited from earlier work
[5] = tested on: erythroleukemia K562 cells; settings: cited from earlier work
[6] = tested on: peripheral blood leukocytes (PBL); settings: cited from earlier work
[7] = tested on: human leukemia K562 cells; settings: cited from earlier work
[8] = background statement; cited from earlier work
[9] = tested on: brain tumors (neuroglioma), liver and esophageal cancers; settings: 2 year clinical trial in China; cited from earlier work

solubility in water [3]	Molecule	anti-tumor activity ([1]; murine Ehrlich ascites carcinoma, material contained beta-elemene 65%)	side effects during treatment ([1]; murine and rat tumor models)	anti-tumor activity [2]	apoptosis of K562 leukemia cells (K562 leukemia cells)	patients reaching complete remission level (cerebral carcinoma) [%]	in vitro IC50 [4] [µg/mL]	in vitro IC50 [5] [µg/mL]	in vitro IC50 [6] [µg/mL]	apoptosis of K562 cells [7]	bcl-2 protein expression in K562 cells [7]	solubility in water [8]	clinical effect [9]
–	C=CC1(C)CCC(C(=C)C)CC1C(=C)C (stereo not drawn) [beta-elemene, 1-methyl-1-vinyl-2,4-diisoprotenyl-cyclohexane]	marked anti-tumor activity	Diarrhea and weight loss	marked anti-tumor activity	induces apoptosis	–	–	–	–	–	–	–	–
some solubility in water	elemene	–	–	–	–	27	27.5	81	254.3	induces apoptosis	down-regulation of bcl-2 protein	insoluble in water	beneficial effects on brain tumors (neuroglioma), liver and esophageal cancers
